Measured values taken from ChEMBL document CHEMBL2073956, “ATP-dependent transport of bile salts by rat multidrug resistance-associated protein 3 (Mrp3)” (J Biol Chem, 2000).
Structures can show the parent of a compound that is named as a salt.

What was measured:
Assay type in all cases: functional, cell membranes, Membrane vesicle
[1] = target: T1, Mrp3 (ATP-binding cassette sub-family C member 3) (Rattus norvegicus, UniProt O88563); assay: (§1) TP_TRANSPORTER: uptake in membrane vesicles isolated from Mrp3-expressing LLC-PK1 cells; conditions: pig, membrane vesicles from Mrp3-expressing LLC-PK1 cells
[2] = target: T2, ATP-binding cassette sub-family C member 3 (MRP3) (Rattus norvegicus, UniProt O88563); assay: TP_TRANSPORTER: inhibition of E217betaG uptake (E217betaG: 0.055 uM, TLC-S: 20 uM) in membrane vesicles from LLC-PK1 cells; parameters: scale not given: the % may be the effect or the level left; conditions: pig, probe E217betaG, read-out: Activity
[3] = target: T1, Mrp3 (ATP-binding cassette sub-family C member 3); assay: TP_TRANSPORTER: inhibition of Taurocholate uptake (Taurochorate: 1.2 uM, TLCAS: 20 uM) in membrane vesicles isolated from Mrp3-expressing LLC-PK1 cells; parameters: scale not given: the % may be the effect or the level left; conditions: pig, probe taurocholate, read-out: Activity
[4] = target: T2, ATP-binding cassette sub-family C member 3 (MRP3); assay: TP_TRANSPORTER: inhibition of Taurocholate uptake (Taurochorate: 1.2 uM, E217betaG: 75 uM) in membrane vesicles from LLC-PK1 cells; parameters: scale not given: the % may be the effect or the level left; conditions: pig, probe taurocholate, read-out: Activity
[5] = target: T1, Mrp3 (ATP-binding cassette sub-family C member 3); assay: TP_TRANSPORTER: inhibition of Taurocholate uptake (Taurochorate: 1.2 uM, E217betaG: 200 uM) in membrane vesicles isolated from Mrp3-expressing LLC-PK1 cells; parameters: scale not given: the % may be the effect or the level left; conditions: pig, probe taurocholate, read-out: Activity
[6] = target: T2, ATP-binding cassette sub-family C member 3 (MRP3); assay: TP_TRANSPORTER: inhibition of E217betaG uptake (E217betaG: 0.055 uM, GC: 200 uM) in membrane vesicles from LLC-PK1 cells; parameters: scale not given: the % may be the effect or the level left; conditions: pig, probe E217betaG, read-out: Activity
[7] = target: T2, ATP-binding cassette sub-family C member 3 (MRP3); assay: TP_TRANSPORTER: inhibition of Taurocholate uptake (Taurochorate: 1.2 uM, CA: 500 uM) in membrane vesicles from LLC-PK1 cells; parameters: scale not given: the % may be the effect or the level left; conditions: pig, probe taurocholate, read-out: Activity
[8] = target: T3, ATP-binding cassette sub-family C member 3 (Rattus norvegicus, UniProt O88563); assay: as §1; conditions: pig, llc-pk1
[9] = target: T3, ATP-binding cassette sub-family C member 3; assay: TP_TRANSPORTER: inhibition of Taurocholate uptake (Taurochorate: 1.2 uM, GC: 50 uM) in membrane vesicles isolated from Mrp3-expressing LLC-PK1 cells; parameters: scale not given: the % may be the effect or the level left; conditions: pig, llc-pk1, 50 µM
[10] = target: T1, Mrp3 (ATP-binding cassette sub-family C member 3); assay: TP_TRANSPORTER: inhibition of E217betaG uptake (E217betaG: 0.055 uM, GC: 200 uM) in membrane vesicles isolated from Mrp3-expressing LLC-PK1 cells; parameters: scale not given: the % may be the effect or the level left; conditions: pig, probe E217betaG, read-out: Activity
[11] = target: T3, ATP-binding cassette sub-family C member 3; assay: (§2) TP_TRANSPORTER: uptake in membrane vesicles from LLC-PK1 cells; conditions: pig
[12] = target: T3, ATP-binding cassette sub-family C member 3; assay: TP_TRANSPORTER: inhibition of E217betaG uptake (E217betaG: 0.055 uM, TCDC-S: 50 uM) in membrane vesicles isolated from Mrp3-expressing LLC-PK1 cells; parameters: scale not given: the % may be the effect or the level left; conditions: pig, llc-pk1, 50 µM
[13] = target: T2, ATP-binding cassette sub-family C member 3 (MRP3); assay: TP_TRANSPORTER: inhibition of Taurocholate uptake (Taurochorate: 1.2 uM, TCDC-S: 50 uM) in membrane vesicles from LLC-PK1 cells; parameters: scale not given: the % may be the effect or the level left; conditions: pig, probe taurocholate, read-out: Activity
[14] = target: T2, ATP-binding cassette sub-family C member 3 (MRP3); assay: TP_TRANSPORTER: inhibition of E217betaG uptake (E217betaG: 0.055 uM, TCDC-S: 50 uM) in membrane vesicles from LLC-PK1 cells; parameters: scale not given: the % may be the effect or the level left; conditions: pig, probe E217betaG, read-out: Activity
[15] = target: T1, Mrp3 (ATP-binding cassette sub-family C member 3); assay: TP_TRANSPORTER: inhibition of Taurocholate uptake (TCDC-S: 50 uM) in membrane vesicles isolated from Mrp3-expressing LLC-PK1 cells; parameters: scale not given: the % may be the effect or the level left; conditions: pig, probe taurocholate, read-out: Activity
[16] = substrate: [H][C@]12CC[C@]3([H])[C@]([H])(CC[C@]4(C)C([C@H](C)CCC(=O)NCCS(=O)(=O)O)CC[C@@]34[H])[C@@]1(C)CC[C@@H](OS(=O)(=O)O)C2; assay: as §2

For `C[C@H](CCC(=O)NCCS(=O)(=O)O)C1CC[C@H]2[C@@H]3CC[C@@H]4C[C@H](OS(=O)(=O)O)CC[C@]4(C)[C@H]3CC[C@]12C` (stereo partly drawn), the Km [1] was 3.06 µM, the activity at 20 µM [2] was 15.5% and the activity at 20 µM [3] was 12.2%.

Molecule `C[C@]12CC[C@@H]3c4ccc(O)cc4CC[C@H]3[C@@H]1CC[C@@H]2O[C@@H]1O[C@H](C(=O)O)[C@@H](O)[C@H](O)[C@H]1O` [ESTRADIOL 17B GLUCURONIDE] has an activity at 75 µM [4] of 78.4% and an activity at 200 µM [5] of 78.4%.

In the case of `C[C@H](CCC(=O)NCC(=O)O)[C@H]1CC[C@H]2[C@@H]3[C@H](O)C[C@@H]4C[C@H](O)CC[C@]4(C)[C@H]3C[C@H](O)[C@]12C` [GLYCOCHOLIC ACID], the activity at 200 µM [6] is reported as 13.9%, the activity at 500 µM [7] is reported as 0% and the Activity [8] is reported as “substrate [+]”. For the same molecule, the Activity [9] was 16%, the activity at 200 µM [10] was 13.9% and the Activity [11] was “substrate [+]”.

`C[C@H](CCC(=O)NCCS(=O)(=O)O)C1CC[C@H]2[C@@H]3[C@H](O)C[C@@H]4C[C@H](OS(=O)(=O)O)CC[C@]4(C)[C@H]3CC[C@]12C` (stereo partly drawn) [TAUROCHENODEOXYCHOLATE SULFATE] gave an Activity [12] of 26.2%, an activity at 50 µM [13] of 27.8% and an activity at 50 µM [14] of 26.2%. For the same molecule, the Activity [8] was “substrate [+]”, the activity at 50 µM [15] was 27.8% and the Activity [11] was “substrate [+]”.

B1: ATP-binding cassette sub-family C member 3 (Rattus norvegicus) (protein)
chain: MDRLCGSGELGSKFWDSNLTVYTNTPDLTPCFQNSLLAWVPCIYLWAALPCYLFYLRHHRLGYIVLSCLSRLKTALGVLLWCISWVDLFYSFHGLVHGSSPAPVFFITPLLVGITMLLATLLIQYERLRGVRSSGVLIIFWLLCVICAIIPFRSKILLALAEGKILDPFRFTTFYIYFALVLCAFILSCFQEKPPLFSPENLDTNPCPEASAGFFSRLSFWWFTKLAILGYRRPLEDSDLWSLSEEDCSHKVVQRLLEAWQKQQTQASGPQTAALEPKIAGEDEVLLKARPKTKKPSFLRALVRTFTSSLLMGACFKLIQDLSPSSTHSCSASSSGLFRPHGPYWWGFLLAGLMFVSSTMQTLILHQHYHCIFVMALRIRTAIIGVIYRKALTITNSVKREYTVGEMVNLMSVDAQRFMDVSPFINLLWSAPLQVILAIYFLWQILGPSALAGVAVIVLLIPLNGAVSMKMKTYQVQQMKFKDSRIKLMSEILNGIKVLKLYAWEPTFLEQVEGIRQGELQLLRKGAYLQAISTFIWVCTPFMVTLITLGVYVCVDKNNVLDAEKAFVSLSLFNILKIPLNLLPQLISGMTQTSVSLKRIQDFLNQDELDPQCVERKTISPGRAITIHNGTFSWSKDLPPTLHSINIQIPKGALVAVVGPVGCGKSSLVSALLGEMEKLEGAVSVKGSVAYVPQQAWIQNCTLQENVLFGQPMNPKRYQQALETCALLADLDVLPGGDQTEIGEKGINLSGGQRQRVSLARAVYSDANIFLLDDPLSAVDSHVAKHIFDQVIGPEGVLAGKTRVLVTHGISFLPQTDFIIVLADGQITEMGHYSELLQHDGSFANFLRNYAPDENQEANEGVLQHANEEVLLLEDTLSTHTDLTDTEPAIYEVRKQFMREMSSLSSEGEGQNRPVLKRYTSSLEKEVPATQTKETGALIKEEIAETGNVKLSVYWDYAKSVGLCTTLFICLLYAGQNAVAIGANVWLSAWTNDVEEHGQQNNTSVRLGVYATLGILQGLLVMLSAFTMVVGAIQAARLLHTALLHNQIRAPQSFFDTTPSGRILNRFSKDIYVIHEVLAPTILMLFNSFYTSISTIVVIVASTPLFCVVVLPLAVFYGFVQRFYVATSRQLKRLESVSRSPIFSHFSETVTGTSVIRAYGRVQDFKVLSDAKVDSNQKTTYPYIASNRWLGVHVEFVGNCVVLFSALFAVIGRNSLNPGLVGLSVSYALQVTLSLNWMIRTLSDLESNIIAVERVKEYSKTETEAPWVLESNRAPEGWPRSGVVEFRNYSVRYRPGLELVLKNLTLHVQGGEKVGIVGRTGAGKSSMTLCLFRILEAAEGEIFIDGLNVAHIGLHDLRSQLTIIPQDPILFSGTLRMNLDPFGRYSDEDIWRTLELSHLSAFVSSQPTGLDFQCSEGGDNLSVGQRQLVCLARALLRKSRVLVLDEATAAIDLETDDLIQGTIRTQFEDCTVLTIAHRLNTIMDYNRVLVLDKGVVAEFDSPVNLIAAGGIFYGMAKDAGLA
For B1, the Km [16] was 3.06 µM.
